Laboratory results as given in the NIST ThermoML archive (doi:10.1021/je060271a).

Details: 303.15 K, Liquid, Vibrating tube method

CCCCC(=O)OCC(COC(=O)CCCC)(COC(=O)CCCC)COC(=O)CCCC [pentaerythritol tetrapentanoate]
Details	mass density [kg/m3]
981.39 kPa	1011.5
983.3 kPa	1011.5
985.21 kPa	1011.5
987.46 kPa	1011.4
989.21 kPa	1011.5
990.77 kPa	1011.5
992.34 kPa	1011.5
994.41 kPa	1011.4
996.16 kPa	1011.4
998.06 kPa	1011.5
1000.1 kPa	1011.3
1002.1 kPa	1011.3
1004.3 kPa	1011.4
1005.9 kPa	1011.4
1007.8 kPa	1011.4
1009.4 kPa	1011.5
1011.3 kPa	1011.5
1014 kPa	1011.5
1015.8 kPa	1011.5
1017.3 kPa	1011.5
1019.2 kPa	1011.5
1021.5 kPa	1011.4
1023.4 kPa	1011.5
1025.3 kPa	1011.5
1027.4 kPa	1011.6
1029.5 kPa	1011.5
1031.2 kPa	1011.6
1033.5 kPa	1011.5
1035.6 kPa	1011.5
1036.8 kPa	1011.4
1039.1 kPa	1011.5
1041.1 kPa	1011.6
1042.9 kPa	1011.6
1045 kPa	1011.5
1047.6 kPa	1011.6
1049.5 kPa	1011.5
1051.4 kPa	1011.4
1053.7 kPa	1011.5
1055.7 kPa	1011.5
1058 kPa	1011.5
1059.7 kPa	1011.5
1062.2 kPa	1011.5
1064.4 kPa	1011.5
1066.7 kPa	1011.6
1068.7 kPa	1011.5
1071 kPa	1011.5
1072.9 kPa	1011.6
1075.2 kPa	1011.5
1077.2 kPa	1011.5
1078.8 kPa	1011.5
1081.6 kPa	1011.5
1083.8 kPa	1011.5
1085.9 kPa	1011.5
1088 kPa	1011.6
1090.6 kPa	1011.6
1092.7 kPa	1011.6
1095 kPa	1011.5
1097.4 kPa	1011.5
1099.5 kPa	1011.5
1101.7 kPa	1011.5
1104 kPa	1011.6
1106.4 kPa	1011.5
1108.7 kPa	1011.5
1111.1 kPa	1011.5
1113.4 kPa	1011.5
1116 kPa	1011.5
1117.9 kPa	1011.5
1120.7 kPa	1011.6
1122.8 kPa	1011.6
1124.8 kPa	1011.5
1127.3 kPa	1011.5
1129.7 kPa	1011.5
1132.3 kPa	1011.6
1134.6 kPa	1011.7
1137.5 kPa	1011.5
1139.8 kPa	1011.6
1141.8 kPa	1011.5
1144.1 kPa	1011.7
1147.1 kPa	1011.4
1149.3 kPa	1011.6
1151.6 kPa	1011.6
1153.8 kPa	1011.5
1156.6 kPa	1011.6
1159 kPa	1011.6
1162.2 kPa	1011.6
1164.3 kPa	1011.8
1166.9 kPa	1011.6
1169.3 kPa	1011.6
1171.7 kPa	1011.7
1174.3 kPa	1011.6
1176.6 kPa	1011.5
1179.2 kPa	1011.6
1182 kPa	1011.6
1184.7 kPa	1011.6
1187.2 kPa	1011.7
1190.1 kPa	1011.7
1192.6 kPa	1011.7
1195.2 kPa	1011.6
1198.1 kPa	1011.6
1200.7 kPa	1011.6
1203.2 kPa	1011.6
1206.3 kPa	1011.6
1208.5 kPa	1011.6
1211.3 kPa	1011.6
1213.9 kPa	1011.6
1216.9 kPa	1011.7
1219.5 kPa	1011.7
1222.1 kPa	1011.6
1224.7 kPa	1011.7
1227.8 kPa	1011.7
1230.6 kPa	1011.7
1233.4 kPa	1011.6
1236.1 kPa	1011.6
1239.1 kPa	1011.7
1241.9 kPa	1011.6
1244.7 kPa	1011.6
1248 kPa	1011.6
1250.6 kPa	1011.7
1253.5 kPa	1011.6
1256.1 kPa	1011.6
1259.1 kPa	1011.6
1262 kPa	1011.6
1265 kPa	1011.7
1268.1 kPa	1011.6
1271 kPa	1011.6
1274 kPa	1011.7
1277 kPa	1011.6
1279.4 kPa	1011.6
1283 kPa	1011.7
1286 kPa	1011.7
1289.1 kPa	1011.6
1292.6 kPa	1011.7
1296 kPa	1011.7
1299.7 kPa	1011.6
1302.8 kPa	1011.7
1305.6 kPa	1011.7
1308.5 kPa	1011.6
1312.2 kPa	1011.7
1315 kPa	1011.8
1318.1 kPa	1011.7
1321.4 kPa	1011.7
1324.3 kPa	1011.7
1327.8 kPa	1011.6
1331.1 kPa	1011.7
1334.2 kPa	1011.8
1337.4 kPa	1011.6
1340.5 kPa	1011.6
1343.8 kPa	1011.7
1347.3 kPa	1011.8
1350.2 kPa	1011.7
1354.2 kPa	1011.7
1357.2 kPa	1011.6
1360.5 kPa	1011.7
1363.6 kPa	1011.7
1367.4 kPa	1011.7
1371.1 kPa	1011.7
1373.8 kPa	1011.7
1377.5 kPa	1011.7
1381.3 kPa	1011.8
1384.2 kPa	1011.7
